Data as given in patent US9303012B2, “Pyridine-2-amides useful as CB2 agonists” (Hoffmann-La Roche Inc., priority 2012, dated 2016).

Tests used:
human CB2 receptors = human CB2 receptors (Homo sapiens (Human), UniProt P34972); assay: functional cAMP assay, CHO cells expressing human CB2 receptors; assay type: cell-based
Description: (§1) CHO cells expressing human CB1 or CB2 receptors are seeded 17-24 hours prior to the experiment 50.000 cells per well in a black 96 well plate with flat clear bottom (Corning Costar #3904) in DMEM (Invitrogen No. 31331), 1×HT supplement, with 10% fetal calf serum and incubated at 5% CO2 and 37° C. in a humidified incubator. The growth medium was exchanged with Krebs Ringer Bicarbonate buffer with 1 mM IBMX and incubated at 30° C. for 30 min. Compounds were added to a final assay volume of 100 μl and incubated for 30 min at 30° C. Using the cAMP-Nano-TRF detection kit the assay (Roche Diagnostics) was stopped by the addition of 50 μl lysis reagent (Tris, NaCl, 1.5% Triton X100, 2.5% NP40, 10% NaN3) and 50 μl detection solutions (20 μM mAb Alexa700-cAMP 1:1, and 48 μM Ruthenium-2-AHA-cAMP) and shaken for 2 h at room temperature. The time-resolved energy transfer is measured by a TRF reader (Evotec Technologies GmbH), equipped with a ND:YAG laser as excitation source. The plate is measured twice with the excitation at 355 nm and at the emission with a delay of 100 ns and a gate of 100 ns, total exposure time 10 s at 730 (bandwidth 30 nm) or 645 nm (bandwidth 75 nm), respectively. The FRET signal is calculated as follows: FRET=T730-Alexa730-P(T645-B645) with P=Ru730-B730/Ru645-B645, where T730 is the test well measured at 730 nM, T645 is the test well measured at 645 nm, B730 and B645 are the buffer controls at 730 nm and 645 nm, respectively. cAMP content is determined from the function of a standard curve spanning from 10 μM to 0.13 nM cAMP.
(§2) EC50 values were determined using Activity Base analysis (ID Business Solution, Limited). The EC50 values for a wide range of cannabinoid agonists generated from this assay were in agreement with the values published in the scientific literature.

human CB1 receptors = human CB1 receptors (Homo sapiens (Human), UniProt P21554); assay: functional cAMP assay, CHO cells expressing human CB1 receptors; assay type: cell-based
Description: as §1, §2

Chain of human CB1 receptors (P21554 whole entry): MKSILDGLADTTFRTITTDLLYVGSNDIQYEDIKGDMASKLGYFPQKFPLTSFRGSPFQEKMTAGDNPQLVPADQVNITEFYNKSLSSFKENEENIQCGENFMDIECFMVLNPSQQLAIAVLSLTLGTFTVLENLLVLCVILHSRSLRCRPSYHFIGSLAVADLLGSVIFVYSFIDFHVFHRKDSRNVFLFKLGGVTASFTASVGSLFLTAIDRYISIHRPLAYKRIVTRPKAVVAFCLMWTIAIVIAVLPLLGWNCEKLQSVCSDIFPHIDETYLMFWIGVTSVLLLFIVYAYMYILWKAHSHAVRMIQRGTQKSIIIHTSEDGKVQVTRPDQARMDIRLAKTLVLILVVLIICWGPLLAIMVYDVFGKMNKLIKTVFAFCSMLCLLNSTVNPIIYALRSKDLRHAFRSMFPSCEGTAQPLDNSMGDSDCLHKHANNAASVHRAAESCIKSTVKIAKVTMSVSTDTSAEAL
Chain of human CB2 receptors (P34972 whole entry): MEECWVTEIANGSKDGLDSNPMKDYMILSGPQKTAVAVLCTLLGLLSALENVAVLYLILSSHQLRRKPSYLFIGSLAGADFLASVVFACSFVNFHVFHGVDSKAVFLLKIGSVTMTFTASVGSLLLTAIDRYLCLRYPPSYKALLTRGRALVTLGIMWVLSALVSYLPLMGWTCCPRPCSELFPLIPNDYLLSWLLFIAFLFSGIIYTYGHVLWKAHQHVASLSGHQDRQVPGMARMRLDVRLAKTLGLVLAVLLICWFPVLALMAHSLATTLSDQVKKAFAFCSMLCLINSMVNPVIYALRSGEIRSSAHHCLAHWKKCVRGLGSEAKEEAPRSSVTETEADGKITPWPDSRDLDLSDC

| SMILES | EC50 (human CB2 receptors) | EC50 (human CB1 receptors) |
| --- | --- | --- |
| CC1(C)C(=O)NCCN1C(=O)c1ccc(N2CC(F)(F)C2)c(OCC2CC2)n1 [Example 28, 4-[6-Cyclopropylmethoxy-5-(3,3-difluoro-azetidin-1-yl)-pyridine-2-carbonyl]-3,3-dimethyl-piperazin-2-one] | 414 nM | > 10000 nM |
| CCC1(CC)C(=O)NCCN1C(=O)c1ccc(N2CC(F)(F)C2)c(OCC2CC2)n1 [Example 29, 4-[6-Cyclopropylmethoxy-5-(3,3-difluoro-azetidin-1-yl)-pyridine-2-carbonyl]-3,3-diethyl-piperazin-2-one] | 414 nM | > 10000 nM |
| CC(C)CS(=O)(=O)c1nc(C(=O)N2CCCC2(C)C)ccc1C1CC1 [Example 30, [5-Cyclopropyl-6-(2-methyl-propane-1-sulfonyl)-pyridin-2-yl]-(2,2-dimethyl-pyrrolidin-1-yl)-methanone] | 34.5 nM | > 10000 nM |
| CC(C)CS(=O)(=O)c1nc(C(=O)N2COCC2(C)C)ccc1C1CC1 [Example 31, [5-Cyclopropyl-6-(2-methyl-propane-1-sulfonyl)-pyridin-2-yl]-(4,4-dimethyl-oxazolidin-3-yl)-methanone] | 82.1 nM | > 10000 nM |
| Cc1nc([C@H](CC2CC2)N(C)C(=O)c2ccc(N3CC(F)(F)C3)c(OCC3CC3)n2)no1 [Example 32, 6-Cyclopropylmethoxy-5-(3,3-difluoro-azetidin-1-yl)-pyridine-2-carboxylic acid [(S)-2-cyclopropyl-1-(5-methyl-[1,2,4]oxadiazol-3-yl)-ethyl]-methyl-amide] | 256 nM | > 10000 nM |
| Cc1nc(C(C2CC2)N(C)C(=O)c2ccc(C3CC3)c(OCC3CCOCC3)n2)no1 (centres unmarked) [Example 33, 5-Cyclopropyl-6-(tetrahydro-pyran-4-ylmethoxy)-pyridine-2-carboxylic acid [cyclopropyl-(5-methyl-[1,2,4]oxadiazol-3-yl)-methyl]-methyl-amide] | 55.4 nM | > 10000 nM |
| CC(C)C[C@H](c1cccnn1)N(C)C(=O)c1ccc(N2CC(F)(F)C2)c(OCC2CC2)n1 [Example 34, (+)-6-Cyclopropylmethoxy-5-(3,3-difluoro-azetidin-1-yl)-pyridine-2-carboxylic acid methyl-(3-methyl-1-pyridazin-3-yl-butyl)-amide] | 91.1 nM | > 10000 nM |
| CC(C)(C)N(CC(N)=O)C(=O)c1ccc(N2CC(F)(F)C2)c(OCC2CC2)n1 [Example 35, 6-Cyclopropylmethoxy-5-(3,3-difluoro-azetidin-1-yl)-pyridine-2-carboxylic acid tert-butyl-carbamoylmethyl-amide] | 183 nM | > 10000 nM |
| Cc1nnc(CN(C(=O)c2ccc(N3CC(F)(F)C3)c(OCC3CC3)n2)C(C)(C)C)o1 [Example 36, 6-Cyclopropylmethoxy-5-(3,3-difluoro-azetidin-1-yl)-pyridine-2-carboxylic acid tert-butyl-(5-methyl-[1,3,4]oxadiazol-2-ylmethyl)-amide] | 226 nM | > 10000 nM |
| CC1(O)CCN(C(=O)c2ccc(N3CC(F)(F)C3)c(OCC3CC3)n2)C1 (centres unmarked) [Example 37, [6-Cyclopropylmethoxy-5-(3,3-difluoro-azetidin-1-yl)-pyridin-2-yl]-(3-hydroxy-3-methyl-pyrrolidin-1-yl)-methanone] | 364 nM | > 10000 nM |
| O=C(c1ccc(N2CC(F)(F)C2)c(OCC2CC2)n1)N1CCCC12COC2 [Example 38, [6-Cyclopropylmethoxy-5-(3,3-difluoro-azetidin-1-yl)-pyridin-2-yl]-(2-oxa-5-aza-spiro[3.4]oct-5-yl)-methanone] | 212 nM | > 10000 nM |
| CCN(CCOC)C(=O)c1ccc(N2CC(F)(F)C2)c(OCC2CC2)n1 [Example 39, 6-Cyclopropylmethoxy-5-(3,3-difluoro-azetidin-1-yl)-pyridine-2-carboxylic acid ethyl-(2-methoxy-ethyl)-amide] | 142 nM | > 10000 nM |
| Cn1nnnc1CN(C(=O)c1ccc(N2CC(F)(F)C2)c(OCC2CC2)n1)C(C)(C)C [Example 40, 6-Cyclopropylmethoxy-5-(3,3-difluoro-azetidin-1-yl)-pyridine-2-carboxylic acid tert-butyl-(1-methyl-1H-tetrazol-5-ylmethyl)-amide] | 81.8 nM | > 10000 nM |
| CC(=O)NC1CCN(C(=O)c2ccc(N3CC(F)(F)C3)c(OCC3CC3)n2)C1 (centres unmarked) [Example 41, N-{1-[6-Cyclopropylmethoxy-5-(3,3-difluoro-azetidin-1-yl)-pyridine-2-carbonyl]-pyrrolidin-3-yl}-acetamide] | 966 nM | > 10000 nM |
| CC1(C)CCN(C(=O)c2ccc(C3CC3)c(Cc3ccc(F)cc3)n2)CC1 [Example 42, [5-Cyclopropyl-6-(4-fluoro-benzyl)-pyridin-2-yl]-(4,4-dimethyl-piperidin-1-yl)-methanone] | 9 nM | > 10000 nM |
| CC1(C)CCN(C(=O)c2ccc(C3CC3)c(OCC3CCCO3)n2)CC1 (centres unmarked) [Example 43, [5-Cyclopropyl-6-(tetrahydro-furan-2-ylmethoxy)-pyridin-2-yl]-(4,4-dimethyl-piperidin-1-yl)-methanone] | 34.9 nM | > 10000 nM |
| CC1(C)COCN1C(=O)c1ccc(C2CC2)c(Cc2ccc(F)cc2)n1 [Example 44, [5-Cyclopropyl-6-(4-fluoro-benzyl)-pyridin-2-yl]-(4,4-dimethyl-oxazolidin-3-yl)-methanone] | 3.1 nM | 408 nM |
| CC1(C)C[C@@H]2C[C@@](C)(CN2C(=O)c2ccc(N3CC(F)(F)C3)c(OCC3CC3)n2)C1 [Example 45, [6-Cyclopropylmethoxy-5-(3,3-difluoro-azetidin-1-yl)-pyridin-2-yl]-((1S,5R)-1,3,3-trimethyl-6-aza-bicyclo[3.2.1]oct-6-yl)-methanone] | 6.8 nM | > 10000 nM |
| COC[C@H]1CCCN1C(=O)c1ccc(N2CC(F)(F)C2)c(OCC2CC2)n1 [Example 46, [6-Cyclopropylmethoxy-5-(3,3-difluoro-azetidin-1-yl)-pyridin-2-yl]-((R)-2-methoxymethyl-pyrrolidin-1-yl)-methanone] | 360 nM | > 10000 nM |
| CC1(C)CCCN1C(=O)c1ccc(OCC2CC2)c(Cl)n1 [Example 47, (6-Chloro-5-cyclopropylmethoxy-pyridin-2-yl)-(2,2-dimethyl-pyrrolidin-1-yl)-methanone] | 113 nM | > 10000 nM |
| CC1(C)COCN1C(=O)c1ccc(OC(F)(F)F)c(OCC2CC2)n1 [Example 48, (6-Cyclopropylmethoxy-5-trifluoromethoxy-pyridin-2-yl)-(4,4-dimethyl-oxazolidin-3-yl)-methanone] | 108 nM | > 10000 nM |
| CC1(C)COCN1C(=O)c1ccc(OCC2CC2)c(Cl)n1 [Example 49, (6-Chloro-5-cyclopropylmethoxy-pyridin-2-yl)-(4,4-dimethyl-oxazolidin-3-yl)-methanone] | 139 nM | > 10000 nM |
| CC(=O)N1CCC(N(C(=O)c2ccc(N3CC(F)(F)C3)c(OCC3CC3)n2)C2CC2)CC1 [Example 50, 6-Cyclopropylmethoxy-5-(3,3-difluoro-azetidin-1-yl)-pyridine-2-carboxylic acid (1-acetyl-piperidin-4-yl)-cyclopropyl-amide] | 237 nM | > 10000 nM |
| CN(C=O)C(=O)c1ccc(N2CC(F)(F)C2)c(OCC2CC2)n1 [Example 51, 6-(Cyclopropylmethoxy)-5-(3,3-difluoroazetidin-1-yl)-N-formyl-N-methylpyridine-2-carboxamide] | 789 nM | > 10000 nM |
| CN(C(=O)c1ccc(N2CC(F)(F)C2)c(OCC2CC2)n1)c1ccccc1 [Example 52, 6-Cyclopropylmethoxy-5-(3,3-difluoro-azetidin-1-yl)-pyridine-2-carboxylic acid methyl-phenyl-amide] | 645 nM | > 10000 nM |
| O=C(c1ccc(N2CC(F)(F)C2)c(OCC2CC2)n1)N1CC(F)(F)C[C@H]1CO [Example 53, [6-Cyclopropylmethoxy-5-(3,3-difluoro-azetidin-1-yl)-pyridin-2-yl]-((S)-4,4-difluoro-2-hydroxymethyl-pyrrolidin-1-yl)-methanone] | 3.7 nM | > 10000 nM |
| Cc1cn(C)nc1N(C)C(=O)c1ccc(N2CC(F)(F)C2)c(OCC2CC2)n1 [Example 54, 6-Cyclopropylmethoxy-5-(3,3-difluoro-azetidin-1-yl)-pyridine-2-carboxylic acid (1,4-dimethyl-1H-pyrazol-3-yl)-methyl-amide] | 462 nM | > 10000 nM |
| CC1(C)CN(C(=O)c2ccc(N3CC(F)(F)C3)c(OCC3CC3)n2)CCO1 [Example 55, [6-Cyclopropylmethoxy-5-(3,3-difluoro-azetidin-1-yl)-pyridin-2-yl]-(2,2-dimethyl-morpholin-4-yl)-methanone] | 55.4 nM | > 10000 nM |
